The results in this text go back to the METLIN SMRT retention time set (Domingo-Almenara et al. 2019).

The series in a line: gradient 5% acetonitrile 3 min, to 50% in 2 min, to 85% in 15 min, held 3 min, 100 µL/min. The note with it: column: Zorbax Extend-C18 2.1 x 50 mm; eluents: water / acetonitrile, 0.1% formic acid. Summed up:
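Pure standards were run in mixtures of ~100 molecules by HPLC coupled to a quadrupole time-of-flight mass spectrometer. The column was a Zorbax Extend-C18 (2.1 × 50 mm, 1.8 μm) at 100 μL/min, with water and acetonitrile each containing 0.1% formic acid, in positive and negative ionization mode. Dead and dwell volumes were 40 μL and 900 μL. Retention time was taken from computationally picked adduct peaks, each manually inspected, with data collected over 3 months.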
Compound `Cc1ccc(CNC(=O)c2cn(C)c3c(c(C)nn3-c3ccc(F)cc3)c2=O)o1` displayed an RP-LC retention time of 803 s.
With `COC(=O)c1cc(S(=O)(=O)N2CCCC2C(=O)Nc2cccc3c2CCCC3)cn1C` (stereo not drawn) the figure was 1020 s.
In the case of `CC1CCN(c2nccnc2Oc2ccc(C(=O)Nc3ccc4c(c3)OCCO4)cc2)CC1` it was 1080 s; in that of `CCn1cc2c(n1)c(=O)n(Cc1ccccc1)c(=O)n2CC(=O)NCc1ccccc1`, 819 s; in that of `CCN1C(=O)C2(CCN(S(=O)(=O)c3cn(C)cn3)CC2)c2ccccc21`, 724 s.
In the case of `CCC(C(=O)N1CCN(c2ncccn2)CC1)n1c2ccccc2c2cnn(C)c(=O)c21` (stereo not drawn) it was 875 s; in that of `Cc1ccc(NC(=O)Cn2c(=O)n(-c3ccc(F)cc3)c3ncccc32)c(C)c1`, 875 s.
`CC(C)Oc1ccc(CNC(=O)C2CCCN(c3ccc(=O)n(-c4cccc(Cl)c4)n3)C2)cc1` (stereo not drawn) showed an RP-LC retention time of 946 s.
In the case of `CCCCn1c(=O)c2ccccc2n(Cc2nc(-c3ccccc3OC)no2)c1=O` it was 1050 s; in that of `CCn1nccc1C(=O)N1CCN(c2cc(-c3ccccc3)[nH]n2)CC1`, 694 s; in that of `CCOC(=O)c1c(C)oc2nc(C)nc(NCCN(C)Cc3ccccc3)c12`, 701 s.
With `CCCNC(=O)c1ccc(CN2CC(=O)N3CCCCC3C2=O)cc1` (stereo not drawn) the figure was 1120 s.
In the case of `CCC(C)NC(=O)c1cc(C)nc2ccc(Cl)cc12` (stereo not drawn) it was 770 s; in that of `Cc1ccc(CNC(=O)c2cc(-c3ccncc3)cn2Cc2ccccc2C)o1`, 749 s.
Turning to `CN1C(=O)C(CC(=O)N2CCCCC2)Sc2ncccc21` (stereo not drawn), the RP-LC retention time was determined as 658 s.
With `COCCN1C(=O)CCc2cc(NS(=O)(=O)c3ccc(OC)c(Cl)c3)ccc21` the figure was 794 s.
With `COC[C@@H]1CN(Cc2cc(C)nn2C)C[C@H]1c1ccccn1` the figure was 559 s; with `COc1cc(OC)cc(-c2noc(-c3nnn(Cc4nc(-c5ccccc5OC)oc4C)c3C)n2)c1`, 1130 s; with `O=S(=O)(c1ccccc1)N1CCCC(c2nnnn2-c2ccccc2)C1` (stereo not drawn), 928 s.
In the case of `COc1ccc(-c2noc(Cc3nnc(-c4cccc(F)c4)o3)n2)cc1F` it was 1000 s; in that of `O=C(Nc1ccc(Cl)cc1F)C1CCN(c2nccnc2Sc2ccccc2)CC1`, 1190 s.
Consider `Cc1noc(-c2ccnc(-n3ncc(C(=O)NC4CCCCC4)c3C)c2)n1`, for which the RP-LC retention time is 892 s.
`Clc1ccc(-c2csc(Cc3nc(-c4ccc5c(c4)OCO5)no3)n2)cc1` gave an RP-LC retention time of 1200 s.
In the case of `Cc1ccccc1-c1nc2nc(C)c(CC(=O)N3CCCC3)c(C)n2n1` it was 735 s; in that of `CS(=O)(=O)N1CCCc2cc(C(=O)Nc3ccccc3Br)ccc21`, 927 s; in that of `O=C(CN1C(=O)C2CCCN2C(=O)c2ccccc21)c1ccc(Br)cc1` (stereo not drawn), 823 s.
With `COc1ccccc1NC(=O)N1CCc2nc(-c3ccc(Cl)cc3)ncc2C1` the figure was 948 s.
`CCOc1ccc(NS(=O)(=O)c2cc(-c3c(C)noc3NC(C)=O)ccc2OC)cc1` had an RP-LC retention time of 773 s.
With `O=C(Nc1nc(-c2ccccc2)cs1)c1c(-c2ccccc2)nc2n1CCS2(=O)=O` the figure was 1010 s; with `Cc1ccc(CN2CCC(C(=O)N3CCCCCCNC(=O)CC3)CC2)s1`, 595 s.
In the case of `Cc1ccc(Cn2cccc(C(=O)Nc3nc4c(C)cccc4s3)c2=O)cc1` it was 1240 s; in that of `CCOc1ccccc1NC(=O)Cn1nc(C2CC2)cc1C(=O)N1CCCC1`, 850 s.
`CCc1cc(C(=O)N2CCN(c3ccccc3)CC2)nc2ccnn12`: the RP-LC retention time was 814 s.
In turn, `CCCNc1nc(-c2ccc(C3CCCCC3)cc2)cs1` had an RP-LC retention time of 1170 s.
The compound `Cc1cc(Nc2ccccc2)nc(N2CCN(C(=O)Nc3ccccc3)CC2)n1` gave an RP-LC retention time of 693 s.
In the case of `COCCNc1c(-c2cccc(C)c2)nc2sc(C(=O)NC3CC3)c(C)n12` it was 602 s; in that of `Cc1ccc(Cl)cc1NC(=O)NC1CCN(c2ccc(F)cc2)C1=O` (stereo not drawn), 867 s; in that of `Cc1ccc(C)c(NC(=O)Cn2cnc(-c3noc(-c4ccncc4)n3)c2)c1`, 687 s.
`Cn1nccc1C(=O)NCc1ccc(-c2nc(-c3ccc(F)cc3)no2)s1` showed an RP-LC retention time of 930 s.
With `CCCN1C(=O)CCc2c(C)nc(-c3ccc(C)cc3)nc21` the figure was 1150 s; with `COc1ccc(NC(=O)C2CCCN(c3nccnc3Sc3ccccc3)C2)cc1Cl` (stereo not drawn), 1150 s; with `Cc1ccc(NC(=O)C2CCN(S(=O)(=O)c3ccc4c(c3)NC(=O)C(C)O4)CC2)cc1Cl` (stereo not drawn), 948 s.
With `CCn1ncn2cc(S(=O)(=O)NCc3ccc(Cl)cc3)cc2c1=O` the figure was 878 s.
In the case of `COc1cc(NC(=O)C2CCN(S(=O)(=O)c3cn(C(C)C)cn3)CC2)cc(OC)c1OC` it was 707 s; in that of `CC1CCCN(c2nc(C(=O)NC3CC3)cs2)C1` (stereo not drawn), 590 s.
Regarding `O=c1n(Cc2ccc(F)cc2)nc2c(S(=O)(=O)N3CCCCC3)cccn12`, the RP-LC retention time was found to be 887 s.
On to `CCN1CCN(c2ccc(N3CCCC(C(=O)N4CCN(c5cccc(Cl)c5)CC4)C3)nn2)CC1` (stereo not drawn), for which the RP-LC retention time was found to be 610 s.
With `CCn1c(=O)c2ccccc2n(Cc2nc(-c3ccc(C(F)(F)F)cc3)no2)c1=O` the figure was 1120 s; with `CCc1ccc(NC(=O)Cn2c(=O)n(-c3cccc(C)c3)c(=O)c3c2cc(C)n3C)cc1`, 645 s; with `Cc1cc(Cl)ccc1N1C(=O)CN(S(C)(=O)=O)CC1(C)C(=O)NC1CCCCC1` (stereo not drawn), 900 s.
In the case of `CSc1ccc(-c2nc3cc(C)ccn3c2Nc2ccc3c(c2)OCCO3)cc1` it was 719 s; in that of `COc1ccc2[nH]cc(CCNC(=O)c3c(Cl)cccc3Cl)c2c1`, 774 s.
In the case of `O=S(=O)(NC1CCCCC1)c1ccc(-c2nnc(C3CCCC3)o2)o1` it was 1020 s.
`Cc1cc(OC(C)C(=O)N2CCC3(O)CCCCC3C2)c2c3c(c(=O)oc2c1)CCCC3` (stereo not drawn) showed an RP-LC retention time of 892 s.
`O=C(Nc1nnc(SCc2ccccn2)s1)C1CC(=O)N(c2ccc(F)cc2)C1` (stereo not drawn) came in with an RP-LC retention time of 617 s.
Turning to `CCc1nnc(-c2ccc3ccn(CC(=O)N4CCC5(CC4)OCCO5)c3c2)o1`, the RP-LC retention time was 722 s.
With `CCCN1CCN(CCCNC(=O)c2ccc3c(c2)N(C)C(=O)C2CCCCN32)CC1` (stereo not drawn) the figure was 597 s.
With `CCOc1ccc(-c2cc3c(=O)n(Cc4nc(-c5ccc(OC)c(OC)c5)no4)ncn3n2)cc1` the figure was 1060 s.
In the case of `CCC(CN1CCOCC1)Nc1nc(-c2ccc(OC)cc2)nc2ccccc12` (stereo not drawn) it was 570 s; in that of `CCOc1ccc(-c2cc3c(=O)n(Cc4nc(-c5ccc(F)cc5)no4)ncn3n2)cc1`, 1160 s; in that of `CC(O)(CS(=O)(=O)c1ccc(F)cc1)C(=O)Nc1ccc(C#N)c(C(F)(F)F)c1` (stereo not drawn), 992 s.
As to `CCS(=O)(=O)N1CC(CC#N)(n2cc(-c3ncnc4[nH]ccc34)cn2)C1`, the RP-LC retention time was 637 s.
In the case of `COc1ccc(-c2cn3c(CC(=O)Nc4cccc(C(F)(F)F)c4)csc3n2)cc1OC`, the RP-LC retention time was determined as 841 s.
Consider `O=C(NC1CCCCCC1)C1CCN(Cc2cc3ccccc3n2Cc2ccccc2)CC1`, for which the RP-LC retention time worked out at 845 s.
Regarding `Cc1cccc(CN2C(=O)CCc3c(C)nc(-c4ccncc4)nc32)c1`, the RP-LC retention time was found to be 764 s.
In the case of `Cc1ccc(CNC(=O)c2ccc(Cn3nc(N4CCN(c5ccccc5)CC4)ccc3=O)o2)o1` it was 706 s.
In the case of `CCOc1ccc(CC(=O)N2CCC3(CC2)C(=O)N(C)c2ccccc23)cc1OCC` it was 830 s; in that of `CC(CCc1ccccc1)NC(=O)Cn1nc2c(Oc3ccccc3)nccn2c1=O` (stereo not drawn), 880 s.
Compound `COCCN1C(=O)CC[C@]2(C(=O)NCc3ccccc3Cl)CCCC[C@@H]12` returned an RP-LC retention time of 730 s.
With `COc1ccccc1-c1ccc(SCc2cccc(C)c2)nn1` the figure was 1080 s; with `O=C(c1ccc2c(=O)n(-c3ccccc3)c(N3CCCC3)nc2c1)N1CCN(c2ccccn2)CC1`, 617 s.
In turn, `CCc1noc2nc(C)n(CC(=O)NCc3ccc(OC(C)C)cc3)c(=O)c12` came in with an RP-LC retention time of 661 s.
For `NC(=O)c1cnn(-c2cccc(F)c2)c1-n1cccc1`, the RP-LC retention time turned out to be 734 s.
In the case of `CC1CCc2nn(CC(=O)Nc3cc(F)ccc3F)cc2C1` (stereo not drawn) it was 983 s; in that of `Cc1ccc(-n2c(=O)c3c(cc(C)n3C)n(CC(=O)Nc3c(C)cccc3C)c2=O)cc1`, 912 s; in that of `COc1ccc(-c2nnc(-c3cc(S(N)(=O)=O)ccc3Cl)o2)cc1`, 792 s.
Compound `CCOc1ccccc1NC(=O)Cn1c(=O)n(-c2cccc(C)c2)c(=O)c2c1cc(C)n2C` returned an RP-LC retention time of 943 s.
`Cc1cc2c(cc1NC(=O)c1ccco1)n(C)c(=O)c(=O)n2C` displayed an RP-LC retention time of 614 s.
